{"source": "paper PMC8800111", "about": "(The Journal of Biological Chemistry, 2021)", "assay_type_in_all_cases": "cell-based", "key": {"[1]": {"biological_target": "proteins of U3A human fibrosarcoma cells (4462 proteins detected) (Homo sapiens, UniProt O15498)", "conditions": "protein YKT6; U3A, 10 μM, 2 h"}, "[2]": {"biological_target": "proteins of U3A human fibrosarcoma cells (4462 proteins detected) (Homo sapiens, UniProt O75351)", "conditions": "protein VPS4B; soluble abundance after heat, U3A cells"}, "[3]": {"biological_target": "proteins of U3A human fibrosarcoma cells (4462 proteins detected) (Homo sapiens, UniProt O75459)", "conditions": "protein PAGE1, U3A cells"}, "[4]": {"biological_target": "proteins of U3A human fibrosarcoma cells (4462 proteins detected) (Homo sapiens, UniProt O95487)", "conditions": "protein SEC24B, U3A cells"}, "[5]": {"biological_target": "proteins of U3A human fibrosarcoma cells (4462 proteins detected) (Homo sapiens, UniProt P06748)", "sequence (P06748 whole entry)": "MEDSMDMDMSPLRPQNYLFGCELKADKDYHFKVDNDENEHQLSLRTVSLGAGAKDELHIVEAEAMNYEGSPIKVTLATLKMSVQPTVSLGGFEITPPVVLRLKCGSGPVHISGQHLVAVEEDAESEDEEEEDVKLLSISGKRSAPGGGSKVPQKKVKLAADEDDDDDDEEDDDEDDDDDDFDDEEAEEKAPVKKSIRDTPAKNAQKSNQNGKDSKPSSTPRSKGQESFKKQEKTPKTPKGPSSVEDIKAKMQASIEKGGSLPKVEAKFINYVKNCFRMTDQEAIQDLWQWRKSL", "conditions": "protein NPM1; U3A cells"}, "[6]": {"biological_target": "proteins of U3A human fibrosarcoma cells (4462 proteins detected) (Homo sapiens, UniProt P09972)", "sequence (P09972 whole entry)": "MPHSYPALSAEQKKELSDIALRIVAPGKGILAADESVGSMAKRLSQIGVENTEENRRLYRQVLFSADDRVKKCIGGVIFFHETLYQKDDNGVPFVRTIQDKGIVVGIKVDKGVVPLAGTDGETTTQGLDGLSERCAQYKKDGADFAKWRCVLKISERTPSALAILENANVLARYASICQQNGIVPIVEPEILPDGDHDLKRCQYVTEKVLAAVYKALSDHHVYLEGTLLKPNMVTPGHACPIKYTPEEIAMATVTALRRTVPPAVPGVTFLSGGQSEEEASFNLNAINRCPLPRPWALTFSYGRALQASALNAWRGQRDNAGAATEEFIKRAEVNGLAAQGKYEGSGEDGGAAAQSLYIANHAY", "conditions": "protein ALDOC, U3A cells"}, "[7]": {"biological_target": "proteins of U3A human fibrosarcoma cells (4462 proteins detected) (Homo sapiens, UniProt P0C2W1)", "conditions": "protein FBXO45, U3A cells"}, "[8]": {"biological_target": "proteins of U3A human fibrosarcoma cells (4462 proteins detected) (Homo sapiens, UniProt P29317)", "conditions": "protein EPHA2; soluble abundance after heat, U3A cells"}, "[9]": {"biological_target": "proteins of U3A human fibrosarcoma cells (4462 proteins detected) (Homo sapiens, UniProt P61313)", "conditions": "protein RPL15; U3A cells"}, "[10]": {"biological_target": "proteins of U3A human fibrosarcoma cells (4462 proteins detected) (Homo sapiens, UniProt P78559)", "conditions": "protein MAP1A, U3A cells"}, "[11]": {"biological_target": "proteins of U3A human fibrosarcoma cells (4462 proteins detected) (Homo sapiens, UniProt Q16637)", "conditions": "protein SMN1; SMN2; U3A, 10 μM, 2 h"}, "[12]": {"biological_target": "proteins of U3A human fibrosarcoma cells (4462 proteins detected) (Homo sapiens, UniProt Q5HYK7)", "sequence (Q5HYK7 whole entry)": "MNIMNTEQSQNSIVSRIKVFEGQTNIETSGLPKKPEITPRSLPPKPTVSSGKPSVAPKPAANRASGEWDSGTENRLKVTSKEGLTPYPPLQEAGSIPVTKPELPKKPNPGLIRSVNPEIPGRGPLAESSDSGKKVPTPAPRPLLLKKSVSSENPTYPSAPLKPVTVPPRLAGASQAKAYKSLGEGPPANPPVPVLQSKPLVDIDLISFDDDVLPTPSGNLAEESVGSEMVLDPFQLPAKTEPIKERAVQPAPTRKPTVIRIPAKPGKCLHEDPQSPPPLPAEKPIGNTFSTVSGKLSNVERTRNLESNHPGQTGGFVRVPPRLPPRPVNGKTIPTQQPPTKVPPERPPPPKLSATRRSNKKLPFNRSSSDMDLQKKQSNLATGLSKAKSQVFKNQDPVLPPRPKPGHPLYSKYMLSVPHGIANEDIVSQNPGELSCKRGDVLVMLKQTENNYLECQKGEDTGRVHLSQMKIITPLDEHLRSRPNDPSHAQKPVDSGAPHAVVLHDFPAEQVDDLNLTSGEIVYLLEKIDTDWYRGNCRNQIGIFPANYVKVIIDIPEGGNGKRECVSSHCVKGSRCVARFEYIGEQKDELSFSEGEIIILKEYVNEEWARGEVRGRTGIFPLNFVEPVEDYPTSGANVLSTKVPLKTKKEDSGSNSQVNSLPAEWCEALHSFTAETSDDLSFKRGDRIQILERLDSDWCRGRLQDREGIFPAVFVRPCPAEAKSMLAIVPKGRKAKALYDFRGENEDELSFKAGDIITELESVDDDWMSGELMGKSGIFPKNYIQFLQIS", "conditions": "protein SH3D19; U3A, 10 μM, 2 h"}, "[13]": {"biological_target": "proteins of U3A human fibrosarcoma cells (4462 proteins detected) (Homo sapiens, UniProt Q68CP9)", "conditions": "protein ARID2; U3A cells"}, "[14]": {"biological_target": "proteins of U3A human fibrosarcoma cells (4462 proteins detected) (Homo sapiens, UniProt Q7L2H7)", "sequence (Q7L2H7 whole entry)": "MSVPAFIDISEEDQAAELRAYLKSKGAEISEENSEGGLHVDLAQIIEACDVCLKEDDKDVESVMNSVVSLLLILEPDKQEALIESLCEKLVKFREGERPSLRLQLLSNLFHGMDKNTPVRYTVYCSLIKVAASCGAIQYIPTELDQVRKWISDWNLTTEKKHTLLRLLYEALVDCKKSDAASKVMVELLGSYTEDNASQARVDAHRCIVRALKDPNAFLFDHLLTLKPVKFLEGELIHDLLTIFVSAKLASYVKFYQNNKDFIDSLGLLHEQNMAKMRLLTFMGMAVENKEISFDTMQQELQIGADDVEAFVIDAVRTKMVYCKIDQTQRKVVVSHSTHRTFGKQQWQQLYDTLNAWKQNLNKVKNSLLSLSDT", "conditions": "protein EIF3M; U3A cells"}, "[15]": {"biological_target": "proteins of U3A human fibrosarcoma cells (4462 proteins detected) (Homo sapiens, UniProt Q8NFQ8)", "conditions": "protein TOR1AIP2; U3A cells"}, "[16]": {"biological_target": "proteins of U3A human fibrosarcoma cells (4462 proteins detected) (Homo sapiens, UniProt Q96A26)", "conditions": "protein FAM162A; U3A, 10 μM, 2 h"}, "[17]": {"biological_target": "proteins of U3A human fibrosarcoma cells (4462 proteins detected) (Homo sapiens, UniProt Q96AT1)", "conditions": "protein KIAA1143; U3A, 10 μM, 2 h"}, "[18]": {"biological_target": "proteins of U3A human fibrosarcoma cells (4462 proteins detected) (Homo sapiens, UniProt Q96TC7)", "conditions": "protein RMDN3; U3A cells"}, "[19]": {"biological_target": "proteins of U3A human fibrosarcoma cells (4462 proteins detected) (Homo sapiens, UniProt Q9BXY0)", "conditions": "protein MAK16; soluble abundance after heat, U3A cells"}, "[20]": {"biological_target": "proteins of U3A human fibrosarcoma cells (4462 proteins detected) (Homo sapiens, UniProt Q9GZT3)", "conditions": "protein SLIRP, U3A cells"}, "[21]": {"biological_target": "proteins of U3A human fibrosarcoma cells (4462 proteins detected) (Homo sapiens, UniProt Q9H0A8)", "conditions": "protein COMMD4; U3A cells"}, "[22]": {"biological_target": "proteins of U3A human fibrosarcoma cells (4462 proteins detected) (Homo sapiens, UniProt Q9H6T3)", "sequence (Q9H6T3 whole entry)": "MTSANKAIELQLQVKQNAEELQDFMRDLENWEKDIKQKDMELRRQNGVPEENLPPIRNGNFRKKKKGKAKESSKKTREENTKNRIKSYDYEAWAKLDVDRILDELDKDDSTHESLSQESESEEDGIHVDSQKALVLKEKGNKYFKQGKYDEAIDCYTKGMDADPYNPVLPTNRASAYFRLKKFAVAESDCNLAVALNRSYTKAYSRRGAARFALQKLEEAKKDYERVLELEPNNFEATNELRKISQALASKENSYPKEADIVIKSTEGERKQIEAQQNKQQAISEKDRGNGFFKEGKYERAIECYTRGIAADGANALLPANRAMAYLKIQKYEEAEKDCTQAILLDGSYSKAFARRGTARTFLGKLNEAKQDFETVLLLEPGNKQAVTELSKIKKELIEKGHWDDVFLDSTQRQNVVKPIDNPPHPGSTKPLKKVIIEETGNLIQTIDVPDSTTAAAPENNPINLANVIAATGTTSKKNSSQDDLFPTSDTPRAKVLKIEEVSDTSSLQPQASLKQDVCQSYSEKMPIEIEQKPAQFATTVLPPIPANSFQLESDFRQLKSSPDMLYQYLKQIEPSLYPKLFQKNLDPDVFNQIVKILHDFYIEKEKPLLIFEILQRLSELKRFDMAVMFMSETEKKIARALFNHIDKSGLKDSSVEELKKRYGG", "conditions": "protein RPAP3; soluble abundance after heat, U3A cells"}, "[23]": {"biological_target": "proteins of U3A human fibrosarcoma cells (4462 proteins detected) (Homo sapiens, UniProt Q9NQG5)", "sequence (Q9NQG5 whole entry)": "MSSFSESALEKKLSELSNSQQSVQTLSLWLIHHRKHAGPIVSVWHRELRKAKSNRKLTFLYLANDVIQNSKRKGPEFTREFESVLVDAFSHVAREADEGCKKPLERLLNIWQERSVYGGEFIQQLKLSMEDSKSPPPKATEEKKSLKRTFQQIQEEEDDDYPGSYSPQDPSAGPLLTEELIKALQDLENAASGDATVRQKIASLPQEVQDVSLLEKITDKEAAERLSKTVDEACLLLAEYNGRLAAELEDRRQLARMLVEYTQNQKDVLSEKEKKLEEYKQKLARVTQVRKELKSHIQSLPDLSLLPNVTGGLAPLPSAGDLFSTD", "conditions": "protein RPRD1B; soluble abundance after heat, U3A cells"}, "[24]": {"biological_target": "proteins of U3A human fibrosarcoma cells (4462 proteins detected) (Homo sapiens, UniProt Q9NT62)", "sequence (Q9NT62 whole entry)": "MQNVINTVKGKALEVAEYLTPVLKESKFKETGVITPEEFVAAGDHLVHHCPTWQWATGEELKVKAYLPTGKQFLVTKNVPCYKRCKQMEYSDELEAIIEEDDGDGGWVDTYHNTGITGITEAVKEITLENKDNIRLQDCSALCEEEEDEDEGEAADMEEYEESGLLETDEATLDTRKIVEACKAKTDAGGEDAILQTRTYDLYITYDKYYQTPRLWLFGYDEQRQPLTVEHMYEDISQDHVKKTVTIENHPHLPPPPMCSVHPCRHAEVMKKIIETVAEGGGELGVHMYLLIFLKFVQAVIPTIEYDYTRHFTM", "conditions": "protein ATG3; soluble abundance after heat, U3A cells"}, "[25]": {"biological_target": "proteins of U3A human fibrosarcoma cells (4462 proteins detected) (Homo sapiens, UniProt Q9NXR1)", "sequence (Q9NXR1 whole entry)": "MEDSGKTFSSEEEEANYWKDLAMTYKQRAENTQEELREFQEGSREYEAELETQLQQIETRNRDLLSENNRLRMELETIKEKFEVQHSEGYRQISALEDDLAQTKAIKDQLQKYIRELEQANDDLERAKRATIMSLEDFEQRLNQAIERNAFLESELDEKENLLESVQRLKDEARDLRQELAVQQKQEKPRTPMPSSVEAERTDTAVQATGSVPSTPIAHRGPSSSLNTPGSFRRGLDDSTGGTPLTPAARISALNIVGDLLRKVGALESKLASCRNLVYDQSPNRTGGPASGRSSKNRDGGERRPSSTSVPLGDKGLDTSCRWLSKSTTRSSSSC", "conditions": "protein NDE1, U3A cells"}, "[26]": {"biological_target": "proteins of U3A human fibrosarcoma cells (4462 proteins detected) (Homo sapiens, UniProt Q9P2E9)", "sequence (Q9P2E9 whole entry)": "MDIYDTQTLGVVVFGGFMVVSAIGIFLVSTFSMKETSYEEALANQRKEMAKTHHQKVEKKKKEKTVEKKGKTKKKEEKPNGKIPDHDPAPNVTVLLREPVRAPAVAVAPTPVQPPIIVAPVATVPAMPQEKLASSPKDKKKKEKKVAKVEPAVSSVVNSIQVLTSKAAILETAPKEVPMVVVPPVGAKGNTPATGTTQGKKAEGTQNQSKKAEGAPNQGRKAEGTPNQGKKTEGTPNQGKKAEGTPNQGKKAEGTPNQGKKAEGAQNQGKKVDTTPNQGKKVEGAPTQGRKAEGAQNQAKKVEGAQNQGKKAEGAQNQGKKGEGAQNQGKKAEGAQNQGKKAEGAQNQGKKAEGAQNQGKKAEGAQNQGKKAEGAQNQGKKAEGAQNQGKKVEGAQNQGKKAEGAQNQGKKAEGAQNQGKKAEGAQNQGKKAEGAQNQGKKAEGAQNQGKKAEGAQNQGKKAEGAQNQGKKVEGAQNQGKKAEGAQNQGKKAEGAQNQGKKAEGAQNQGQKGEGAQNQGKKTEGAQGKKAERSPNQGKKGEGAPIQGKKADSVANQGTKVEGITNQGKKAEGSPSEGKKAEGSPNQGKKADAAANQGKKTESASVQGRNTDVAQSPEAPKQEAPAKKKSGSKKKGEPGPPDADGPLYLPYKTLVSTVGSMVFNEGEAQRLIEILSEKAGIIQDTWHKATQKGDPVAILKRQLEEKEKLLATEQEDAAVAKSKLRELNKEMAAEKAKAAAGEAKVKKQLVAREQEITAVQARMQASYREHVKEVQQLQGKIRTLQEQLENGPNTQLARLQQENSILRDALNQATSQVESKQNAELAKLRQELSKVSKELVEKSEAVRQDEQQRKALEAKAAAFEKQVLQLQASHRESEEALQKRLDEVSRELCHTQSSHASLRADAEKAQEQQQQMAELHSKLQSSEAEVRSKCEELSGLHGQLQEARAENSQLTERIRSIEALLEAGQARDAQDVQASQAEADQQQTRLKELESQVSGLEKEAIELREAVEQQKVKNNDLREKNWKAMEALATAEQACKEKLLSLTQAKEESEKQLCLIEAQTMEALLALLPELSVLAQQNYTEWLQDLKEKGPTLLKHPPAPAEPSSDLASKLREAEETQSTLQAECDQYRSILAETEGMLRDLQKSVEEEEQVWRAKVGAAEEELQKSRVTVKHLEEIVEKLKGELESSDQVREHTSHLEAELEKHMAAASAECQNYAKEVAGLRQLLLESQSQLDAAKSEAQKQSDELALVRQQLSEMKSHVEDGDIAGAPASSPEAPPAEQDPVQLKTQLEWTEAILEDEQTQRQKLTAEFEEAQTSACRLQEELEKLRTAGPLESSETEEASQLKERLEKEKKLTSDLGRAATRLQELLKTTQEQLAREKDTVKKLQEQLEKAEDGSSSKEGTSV", "conditions": "protein RRBP1; soluble abundance after heat, U3A cells"}, "[27]": {"biological_target": "proteins of U3A human fibrosarcoma cells (4462 proteins detected) (Homo sapiens, UniProt Q9UJU6)", "conditions": "protein DBNL, U3A cells"}, "[28]": {"biological_target": "proteins of U3A human fibrosarcoma cells (4462 proteins detected) (Homo sapiens, UniProt Q9UNM6)", "conditions": "protein PSMD13; U3A cells"}, "[29]": {"biological_target": "proteins of U3A human fibrosarcoma cells (4462 proteins detected) (Homo sapiens, UniProt Q9Y2P8)", "conditions": "protein RCL1; U3A cells"}}, "data": [{"smiles": "CCc1nc(N)nc(N)c1-c1ccc(Cl)cc1", "note": "[pyrimethamine]", "values": [{"measurement": "Log2 (PYR/DMSO), YKT6", "setting": "[1]", "value": 0.27}, {"measurement": "Log2 (PYR/DMSO)", "setting": "[2]", "value": 0.14}, {"measurement": "Log2 (PYR/DMSO)", "setting": "[3]", "value": -0.04}, {"measurement": "Log2 (PYR/DMSO)", "setting": "[4]", "value": -0.04}, {"measurement": "Log2 (PYR/DMSO)", "setting": "[5]", "value": 0.17}, {"measurement": "Log2 (PYR/DMSO)", "setting": "[6]", "value": -0.04}, {"measurement": "Log2 (PYR/DMSO)", "setting": "[7]", "value": -0.04}, {"measurement": "Log2 (PYR/DMSO)", "setting": "[8]", "value": 0.15}, {"measurement": "Log2 (PYR/DMSO)", "setting": "[9]", "value": 0.20}, {"measurement": "Log2 (PYR/DMSO)", "setting": "[10]", "value": -0.04}, {"measurement": "Log2 (PYR/DMSO), SMN1; SMN2", "setting": "[11]", "value": -0.18}, {"measurement": "Log2 (PYR/DMSO), SH3D19", "setting": "[12]", "value": -0.14}, {"measurement": "Log2 (PYR/DMSO)", "setting": "[13]", "value": 0.18}, {"measurement": "Log2 (PYR/DMSO)", "setting": "[14]", "value": 0.18}, {"measurement": "Log2 (PYR/DMSO)", "setting": "[15]", "value": 0.17}, {"measurement": "Log2 (PYR/DMSO), FAM162A", "setting": "[16]", "value": -0.37}, {"measurement": "Log2 (PYR/DMSO), KIAA1143", "setting": "[17]", "value": -0.16}, {"measurement": "Log2 (PYR/DMSO)", "setting": "[18]", "value": 0.15}, {"measurement": "Log2 (PYR/DMSO)", "setting": "[19]", "value": 0.14}, {"measurement": "Log2 (PYR/DMSO)", "setting": "[20]", "value": -0.04}, {"measurement": "Log2 (PYR/DMSO)", "setting": "[21]", "value": 0.21}, {"measurement": "Log2 (PYR/DMSO)", "setting": "[22]", "value": 0.14}, {"measurement": "Log2 (PYR/DMSO)", "setting": "[23]", "value": 0.15}, {"measurement": "Log2 (PYR/DMSO)", "setting": "[24]", "value": 0.13}, {"measurement": "Log2 (PYR/DMSO)", "setting": "[25]", "value": -0.04}, {"measurement": "Log2 (PYR/DMSO)", "setting": "[26]", "value": 0.15}, {"measurement": "Log2 (PYR/DMSO)", "setting": "[27]", "value": -0.04}, {"measurement": "Log2 (PYR/DMSO)", "setting": "[28]", "value": 0.17}, {"measurement": "Log2 (PYR/DMSO)", "setting": "[29]", "value": 0.21}]}]}
